Columns and labels:
[1] = system: TNF-α; assay: LPS-induced TNF-α production in human PBMC, in vitro whole cell assay (ELISA); type: cell-based; settings: LPS stimulation overnight, TNF-α by ELISA
Method: Compounds of the invention were measured for their ability to inhibit the activity of p38 in an in vitro whole cell assay using peripheral blood mononuclear cells (“PBMC” ) obtained from human blood as follows. Freshly obtained venous blood was anticoagulated with heparin, diluted with an equal volume of phosphate buffered saline (“PBS” ) and placed in a sterile tube or other container. Aliquots (30 mL) of this mixture were transferred to centrifuge tubes which were underlaid with Ficoll-Hypaque (15 mL). The prepared tubes were centrifuged at 400×g without braking for 30 min at room temperature. Approximately ½ to ⅔ of the platelet layer above the mononuclear cell band was removed with a pipet. The majority of the mononuclear cell layer was carefully removed using a pipet and these PBMCs were diluted with PBS and spun at 600×g for 15 min. The resulting PBMCs were washed with another portion of PBS and spun at 400×g for 10 min at room temperature. The recovered pellets were diluted in low endotoxin RPMI/1% FCS culture medium and gave a cell concentration of 0.5–2.0×10^6 PMBC/mL. A small volume of the suspension was removed for counting on a hemocytometer and the remaining preparation was centrifuged at 200×g for 15 min at room temperature. The recovered pelleted PMBC were resuspended in RPMI/1% FCS to a concentration of 1.67×10^6/mL. […]

[2] = system: Mouse TNF-α; assay: LPS induced TNF-α production, in vivo rodent assay (oral dosing, serum ELISA); settings: LPS 1 mg/kg i.p. 30 min after dosing, serum 1 h later; for inhibition at 10 mg/kg: oral 10 mg/kg; for inhibition at 25 mg/kg: oral 25 mg/kg
Method: Mice (BALB/cJ females, Jackson Laboratories) or rats (Lewis males, Charles River) were fasted for 30 min prior to oral dosing with 5–10 mL/kg of test compound at 5–50 mg/kg. Thirty minutes after dosing, the animals were injected intraperitoneally with LPS at 1 mg/kg and returned to their cages for 1 h. Animals were anesthetized by CO2, exsanguinated by cardiac puncture and whole blood collected (0.1–0.7 mL). The blood was allowed to clot and serum was transferred to a centrifuge tube. This sample was centrifuged, serum was collected, aliquoted and frozen at −80 C. Samples were tested by commercial ELISAs for TNF-α (Endogen for mouse TNF-α and Biosource for rat TNF-α), resulting in data as shown in Table A.

IC50 [1] [nM]	melting point [°C]	Compound	inhibition at 10 mg/kg [2] [%]	inhibition at 25 mg/kg [2] [%]
15	171 to 172	CN1CCC/C1=C\c1nc(-c2ccc(F)cc2)c(-c2ccncc2)n1CCCc1ccccc1 [Compound 1, 4-[4-(4-fluorophenyl)-2-[(E)-(1-methyl-2-pyrrolidinylidene)methyl]-1-(3-phenylpropyl)-1H-imidazol-5-yl]-pyridine]	77	99
17	126.6 to 127.6	CCN1CCC/C1=C\c1nc(-c2ccc(F)cc2)c(-c2ccncc2)n1CCCc1ccccc1 [Compound 2, 4-[4-(4-fluorophenyl)-2-[(E)-(1-ethyl-2-pyrrolidinylidene)methyl]-1-(3-phenylpropyl)-1H-imidazol-5-yl]-pyridine]	89	98

— patent US7041686B2, “Substituted imidazoles useful in the treatment of inflammatory diseases” (priority 2000, dated 2006)
